Several values for one entry are separate records, joined by “and”; a condition that tells them apart may be missing. Equal values may be shown once.
What was measured:
pig skin = test: Pig skin studies, topical radioprotector cream; format: in vivo; conditions: cream 0.15 g/field
Excerpt: The pig skin model is described by J. W. Hopewell^4. The structural similarities between human and pig skin underlie the relevance of the model.
Although some pig skin studies involve external beam irradiation, a particularly convenient radiation source is discs containing β-emitting isotopes, typically ^90Sr. The sources can be held to the skin, or for higher doses, taped to the animal, for appropriate periods of time to deliver the required dose. The discs are typically about 2 cm in diameter so that an array of different doses can be arranged on the flanks of a single animal.
The “acute” reactions (3-9 weeks after irradiation) result from radiation damage to the basal cells of the epidermis, and are manifest as erythema, and dry and moist desquamation. The “late” reactions (10-16 weeks) results from radiation effects to the dermal vascular connective tissue, characterized by a dusky mauve erythema and necrosis. The scoring system is well described.
The radioprotectors were formulated in a propylene glycol cream containing 10% DMSO. The extent and kinetics of penetration were followed by fluorescence microscopy of frozen skin sections, to enable optimization of delivery.
Radiation dose response curves were constructed for radiation only fields. The results of fields with radioprotector creams are shown in Table 3 below, with the respective cream (vehicle) only controls. The decrease in extent of skin reaction for the test fields is evident.

V79 cells [1] = test: Radioprotection, clonogenic survival of irradiated V79 cells; format: cell-based; conditions: for DMF: survival curves FIG. 3; for Protector plus irradiation (12 Gy), survival fraction relative to untreated control cells / Protection Factor: 12 Gy; for Protection Factor: ratio of survival fractions with and without protector
Protocol: (§1) Monolayers of V79 cells were maintained in 25 cm^2 Falcon plastic flasks in alpha-MEM medium with 10% foetal calf serum (FCS). Log phase cultures were treated by adding the required amount of Hoechst 33258, Hoechst 33342 or para dimethylamino Hoechst (25-500 nmoles) dissolved in 50 μL 10 μM acetic acid in 50% methanol. The flasks were inverted immediately prior to adding the compound to ensure complete mixing of the compound with the medium, before contact with the monolayer.
(§2) After 2 hours incubation at 37° C., the cells were harvested and assayed for clonogenic survival. […] All clonogenic survival results are expressed relative to the untreated controls.
Cultures were irradiated in a 137Cs Gammacell-40 (Atomic Energy of Canada Ltd.) at a dose rate of 0.84 Gy/min. Ligand-treated cells were irradiated two hours after starting the exposure to the ligand. In all cases, the clonogenic survival was delayed until one hour after completion of irradiation.
(§3) Hoechst 33258, Hoechst 33342 or para dimethylamino Hoechst was added to the media of monolayers of V79 cells, to the indicated final concentrations. […] All cultures were held for a further one hour prior to plating for clonogenic survival.
Mono layer cultures of V79 cells were exposed to various concentrations of the three radioprotectors, as described in (a) above. After two hours, the cells were chilled and kept cold during the isolation of nuclei, using 0.08% w.v Triton X-100. After counting an aliquot of the nuclear suspension, the ligands were extracted and quantitated by spectrophotometry and the nuclear content calculated. The survival results shown in the lower part of FIG. 1 were replotted using the nuclear uptake data and the results are shown in FIG. 2.
The first three columns show survival fraction relative to that for untreated control cells. Each row represents a separate experiment and the figures are the means of duplicates. The figures in square brackets is the mean of a number of the results of a number of experiments done over the relevant period. The protection factor is the ratio of survival fractions for irradiated cells, with and without protector.
A number of bibenzimidazoles represented by formula (I) have been synthesised and assayed for radioprotective activity in cell culture. Assays were conducted using V79 fibroblasts and involved exposure of the cells to a single radiation dose (12Gy) and comparison of the clonogenic survival with and without the inclusion of the protector in the cell culture medium. The ratio of the survival fractions (with protector/without), designated the protection ratio (PR12Gy), provides a measure of the extent of radioprotection. The experimental protocol adopted was as in Example 12.

V79 cells [2] = test: Cytotoxicity, clonogenic survival of V79 cells without irradiation
Protocol: as §1, §2, §3

mouse lung = test: Mouse lung model, bilateral lung irradiation; format: in vivo; conditions: maximum breathing rate up to 24 weeks, FIG. 5
Excerpt: Irradiation of mouse lung, at appropriate doses, results in fatal loss of lung function. The onset of damage is signalled by an increase in breathing rate. The dose response and kinetics of loss of lung function following irradiation of both lungs varies between different mouse strains.
The procedures for irradiation and measurement of breathing rate were essentially as described by Travis et al^3. Groups of 5-6 male DBA/2J mice were anaesthetised and irradiated with 250 kV X-rays (single dose) using a jig that shielded all the body except for both lungs. A thin midline lead strip was used to shield spinal cord between the lungs.
At weekly intervals, from 4-6 weeks post-irradiation, the breathing rate was measured for each mouse. The mouse was held in a small chamber equipped with a microphone and the output analysed on a PC. The mean breathing rate was determined for each of 3 periods of 2 seconds and the average of these readings was recorded as the breathing rate. The recorded breathing rates for each group of mice were averaged and the standard error calculated.
All mice were monitored daily for signs of respiratory distress (hunched appearance, raised hair), with particular attention being paid to those mice showing elevated breathing rate.
The radioprotector (2 mg/25 g mouse) was administered 30 minutes prior to the single irradiation dose.

[3] = system: Chinese Hamster Ovary (CHO) fibroblasts; test: Radioprotection survival curves of cultured CHO cells (FIG. 7, Table 5); format: cell-based; conditions: ratio of doses reducing survival to 10% of control
Excerpt: where S is the survival fraction at dose D Gy, and α and β are constants.
The fitted values of α and β were used to calculate the radiation doses (D0.1) corresponding to a survival fraction of 0.1. The ratio of the D0.1 values with and without protector, then provided the Dose Modification Factor (DMF) for each compound:
DMF=D0.1(with protector)/D0.1(without)

HT29 = test: Radioprotection DMF in HT29 cells (Table 1); format: cell-based; conditions: HT29, 8.7 μM
[4] = system: mouse brain endothelial cells; test: Protection of mouse brain endothelial cells; format: in vivo; conditions: 80 mg/kg i.v. 10 minutes prior to radiation, within 24 hours, FIG. 6
Protocol: Irradiation of rodent brain results in the loss of a subset of brain endothelial cells within 24 hours after irradiation.
Endothelial cell numbers were scored as described by Lyubimova et al. Each point represents the mean for 3-4 mice; 3 sections were scored for each animal, a total of 30 fields were scored for each section, and the figure indicates the average number of cells per field. The error bars indicate standard errors.

CHO = test: Radioprotection DMF in CHO cells (Table 1, existing radioprotector); format: cell-based; conditions: 4 mM
[5] = V79 cells, no irradiation, clonogenic survival, FIG. 1

## CN1CCN(c2ccc3[nH]c(-c4ccc5[nH]c(-c6ccc(N(C)C)cc6)nc5c4)nc3c2)CC1 [Compound 1, 4Dimethylamino-1-[5′-{5′″-(4′″-methylpiperazin-1′″-yl)benzimidazol-2″-yl]benzimidazol-2′-yl}benzene]
Pig skin; 36 Gy, 5000 μg/g
  Fields showing moist desquamation (10 weeks post-Irr.) #: 4/7
  Fields showing moist desquamation (10 weeks post-Irr.) %: 57%
V79 cells [1]; V79, 84 μM
  DMF: 1.7
V79 cells [1]; V79, 12Gy 137Cs-γ, 20 μM
  Protection ratio 12Gy, Exp 8: 5.1
V79 cells [1]; V79, 12Gy 137Cs-γ, 40 μM
  Protection ratio 12Gy, Exp 8: 7.7
V79 cells [1]; V79, 12Gy 137Cs-γ, 50 μM
  Protection ratio 12Gy, Exp 8: 8.0
V79 cells [1]; V79 cells, 12Gy, uptake per 10^6 nuclei, FIG. 2
  radioprotective potency, survival after 12Gy in terms of nuclear content of the radioprotector: more potent radioprotector
V79 cells [2]; [5]
  concentration up to which there is no effect on survival: up to 100 μM

## CN(C)c1ccc(-c2nc3cc(-c4nc5cc(N6CCCCC6)ccc5[nH]4)ccc3[nH]2)cc1 [Compound 2, 4-Dimethylamino-1-{5′-[5″-(piperidin-1′″-yl)benzimidazol-2″-yl]benzimidazol-2′-yl}benzene]
V79 cells [1]; 17 μM
  Protector plus irradiation (12 Gy), survival fraction relative to untreated control cells: 0.062 and 0.059
  Protection Factor: 2.8 and 2.7
V79 cells [2]; 17 μM
  Protector only (no irradiation), survival fraction relative to untreated control cells: 0.89 and 0.81

## Cc1cc(N(C)C)ccc1-c1nc2cc(-c3nc4cc(N5CCN(C)CC5)ccc4[nH]3)ccc2[nH]1 [Compound 5, ortho methyl para dimethylamino Hoechst]
Mouse lung
  DMF, maximum breathing rate: 1.4
Pig skin; 40 Gy, 5000 μg/g
  Fields showing moist desquamation (10 weeks post-Irr.) #: 4/8
  Fields showing moist desquamation (10 weeks post-Irr.) %: 50%
Pig skin; 44 Gy, 5000 μg/g
  Fields showing moist desquamation (10 weeks post-Irr.) #: 4/8
  Fields showing moist desquamation (10 weeks post-Irr.) %: 50%
V79 cells [1]; 20 μM
  Protector plus irradiation (12 Gy), survival fraction relative to untreated control cells: 0.15 and 0.145 and 0.12
  Protection Factor: 4.4 and 4.0 and 4.3
V79 cells [1]; V79, 30 μM
  DMF: 2.1
V79 cells [1]; V79, 12Gy 137Cs-γ, 30 μM
  Protection ratio 12Gy, Exp 5: 17.4
  Protection ratio 12Gy, Exp 10: 18.7
[3]; 30 μM
  DMF: 1.66
V79 cells [2]; 20 μM
  Protector only (no irradiation), survival fraction relative to untreated control cells: 0.71 and 0.63 and 0.88

## CCOc1ccc(-c2nc3cc(-c4nc5cc(N6CCN(C)CC6)ccc5[nH]4)ccc3[nH]2)c(C)c1 [Compound 6, 4-Ethoxy-2-methyl{5′-[5″(4′″-methylpiperazin-1′″-yl)benzimidazol-2″-yl]benzimidazol-2′-yl}benzene]
V79 cells [1]; V79, 12Gy 137Cs-γ, 20 μM
  Protection ratio 12Gy, Exp 3: 8.0

## CCOc1ccc(-c2nc3cc(-c4nc5cc(N6CCN(C)CC6)ccc5[nH]4)ccc3[nH]2)c(C(C)C)c1 [Compound 7, 4-Ethoxy-2i-propyl-1-{5′-[5″-(4′″-methylpiperazin-1′″-yl)benzimidazol-2′-yl]benzimidazol-2′-yl}benzene]
V79 cells [1]; V79, 12Gy 137Cs-γ, 20 μM
  Protection ratio 12Gy, Exp 4: 10.8
V79 cells [1]; V79, 12Gy 137Cs-γ, 30 μM
  Protection ratio 12Gy, Exp 4: 10.4
  Protection ratio 12Gy, Exp 5: 11.3
V79 cells [1]; V79, 12Gy 137Cs-γ, 40 μM
  Protection ratio 12Gy, Exp 4: 14.2
  Protection ratio 12Gy, Exp 5: 13.2
V79 cells [1]; V79, 12Gy 137Cs-γ, 50 μM
  Protection ratio 12Gy, Exp 5: 15.2
[3]; 20 μM
  DMF: 1.42

## CN1CCN(c2ccc3[nH]c(-c4ccc5[nH]c(-c6cccc(N(C)C)c6)nc5c4)nc3c2)CC1 [Compound 9, 3-N,N-Dimethylamino-1-{5′-[5″-(4′″-methylpiperazin-1′″-yl)benzimidazol-2″-yl]benzimidazol-2′-yl}benzene]
V79 cells [1]; V79, 12Gy 137Cs-γ, 20 μM
  Protection ratio 12Gy, Exp 6: 3.6
V79 cells [1]; V79, 12Gy 137Cs-γ, 30 μM
  Protection ratio 12Gy, Exp 7: 7.6
V79 cells [1]; V79, 12Gy 137Cs-γ, 40 μM
  Protection ratio 12Gy, Exp 7: 7.2
V79 cells [1]; V79, 12Gy 137Cs-γ, 50 μM
  Protection ratio 12Gy, Exp 1: 9.7
  Protection ratio 12Gy, Exp 2: 9.5
  Protection ratio 12Gy, Exp 7: 8.2

## CCOc1ccc(-c2cc3ccc(-c4nc5cc(N6CCN(C)CC6)ccc5[nH]4)cc3[nH]2)cc1 [Compound 10, 4-Ethoxy-1-{6′-[5″-(4′″-methylpiperazin-1′″-yl)benzimidazol-2″-yl]indol-2′-yl}benzene]
V79 cells [1]; V79, 12Gy 137Cs-γ, 20 μM
  Protection ratio 12Gy, Exp 9: 1.5
V79 cells [1]; V79, 12Gy 137Cs-γ, 40 μM
  Protection ratio 12Gy, Exp 9: 1.4

## CCOc1ccc(-c2nc3ccc(-c4nc5ccc(N6CCN(C)CC6)cc5[nH]4)cc3[nH]2)cc1 [Hoechst 33342, 4-ethoxy-1-{5′[5′″-(4′″-methylpiperazin-1′″-yl)benzimidazol-2″-yl]benzimidazol-2′-yl}benzene, reference compound]
Pig skin; 36 Gy, 5000 μg/g
  Fields showing moist desquamation (10 weeks post-Irr.) #: 3/7
  Fields showing moist desquamation (10 weeks post-Irr.) %: 43%
Pig skin; 40 Gy, 500 μg/g
  Fields showing moist desquamation (10 weeks post-Irr.) #: 4/6
  Fields showing moist desquamation (10 weeks post-Irr.) %: 83%
HT29
  DMF: 1.5
[4]
  loss of endothelial cells of mouse brain after irradiation: protected
V79 cells [1]; 21 μM
  Protector plus irradiation (12 Gy), survival fraction relative to untreated control cells: 0.05 and 0.06 and 0.051
  Protection Factor: 2.3 and 2.7
V79 cells [1]; V79, 21 μM
  DMF: 1.3
V79 cells [1]; V79, 12Gy 137Cs-γ, 20 μM
  Protection ratio 12Gy, Exp 1: 7.2
  Protection ratio 12Gy, Exp 4: 11.8
  Protection ratio 12Gy, Exp 9: 7.1
V79 cells [2]; 21 μM
  Protector only (no irradiation), survival fraction relative to untreated control cells: 0.80 and 0.87 and 0.76
V79 cells [2]; [5]
  concentration above which the protector becomes cytotoxic: 20 to 30 µM

## NCCCNCCS [WR1065]
CHO
  DMF: 1.9

## CN1CCN(c2ccc3[nH]c(-c4ccc5[nH]c(-c6ccc([N+](=O)[O-])cc6)nc5c4)nc3c2)CC1 [para nitro Hoechst, reference compound]
V79 cells [1]; 20 μM
  Protector plus irradiation (12 Gy), survival fraction relative to untreated control cells: 0.011
  Protection Factor: [0.5]*
V79 cells [2]; 20 μM
  Protector only (no irradiation), survival fraction relative to untreated control cells: 0.89
